# Patent US20080176909A1, “Methods for prevention and treatment of arteriosclerosis, hypertension and restenosis” (DAIICHI SANKYO COMPANY, LIMITED, priority 2003, published 2008)
# Experiments:
# [1] = test system: cultured rat vascular smooth muscle cells; assay: DNA synthesis ([3H]thymidine incorporation) following stimulation by angiotensin II; type: cell-based; details: for DNA synthesis of cultured rat vascular smooth muscle cells: low doses, alone or co-administered
# Excerpt: (§1) (3) Olmesartan, an AT1 receptor blocker, was intraperitoneally injected into wild-type mice by an osmotic minipump, and the dose-dependency of olmesartan was investigated as described in (2). Oral administration of azelnidipine to the wild-type mice was started after cuff placement, and dose-dependency of azelnidipine was investigated as described in (2). (4) Both olmesartan and azelnidipine were simultaneously administered to wild-type mice, and the effects of co-administration of olmesartan and azelnidipine were compared with those of administration of either olmesartan or azelnidipine alone as described in (2). Effects of olmesartan and azelnidipine were investigated at effective doses of either olmesartan or azelnidipine alone and at insufficient doses to elicit significant effects by either olmesartan or azelnidipine alone, so as to determine synergistic effects of these two agents. (5) By using cultured rat vascular smooth muscle cells, the effects of co-treatment of olmesartan and azelnidipine on facilitation of DNA synthesis following stimulation by angiotensin II (determined by incorporation of [^3H]thymidine) were investigated.
# [2] = test system: cuff-induced vascular damage model of wild-type mice (femoral artery); assay: Cuff-induced vascular injury model: DNA synthesis (BrdU index) and neointima formation; type: in vivo; details: for effects on blood pressure: azelnidipine 0.1 to 1.0 mg/kg/day, olmesartan 0.5 to 3.0 mg/kg/day
# Protocol: C57BL/6 mice aged 10 weeks were used. In a part of this study, AT1a receptor gene knock out (AT1aKO) mice were also used. Inflammatory vascular damage was induced in mice by loosely placing a polyethylene tube which was cut longitudinally to open the tube, around the femoral artery of mice. In the damaged artery, the following observations were determined. The usefulness of this model of vascular damage to analyze vascular remodeling has been previously reported (Physiol. Genomics., 2, pp. 13-30, 2000; Circulation, 104, pp. 2716-2721, 2001; Circulation, 106, pp. 847-853, 2002).
# A paraffin-embedded section of the damaged artery was prepared 14 days after cuff placement, Elastica van Gieson staining was carried out, and the cross-sectional area of the neointima and tunica media of the blood vessels was determined by image analysis software. For quantification of DNA synthesis, bromodeoxyuridine (BrdU) was injected into the mice 7 days after cuff placement and BrdU index calculated from incorporation into the nuclei of the cells was calculated.
# as §1
# [3] = test system: apolipoprotein E (ApoE) knock out mice; assay: Antihypertensive effects, systolic blood pressure on high fatty diet; type: in vivo; details: for Systolic blood pressures: 3 mg/kg of each agent oral for 24 weeks, measured 21 to 24 hours after administration in the 23rd week, mean±S.E.; for hypotensive effects: 3 mg/kg of each agent, Dunnett's multiple comparison test
# Protocol: Male apolipoprotein E (ApoE) knock out mice aged 12 weeks were divided into 4 groups (15 mice per group) as following: control group (0.5% carboxymethylcellulose (CMC) solution administered group), olmesartan medoxomil (3 mg/kg) administered group, azelnidipine (3 mg/kg) administered group, and olmesartan medoxomil (3 mg/kg) plus azelnidipine (3 mg/kg) administered group. Either test substance or vehicle (0.5% CMC solution) was orally administered to animals for 24 successive weeks. A high fatty diet (containing 0.15% cholesterol and 15% unsalted butter) was given to all mice in all groups following the start of test agent administration (12 weeks of age). The systolic blood pressure of all mice was measured by a non-preheating type blood pressure monitor (BP MONITOR FOR RATS & MICE, Model MK-2000, Muromachi Kikai Co., Ltd.) at 21 to 24 hours after drug administration in the 23rd week. The results are shown in Table 3 (values in the table indicate mean±S.E.).
# [4] = low doses: 0.1 mg/kg/day azelnidipine, 0.5 mg/kg/day olmesartan, alone or at the same time
SMILES,DNA synthesis of cultured rat vascular smooth muscle cells [1],effects on blood pressure [2],"increase in DNA synthesis of vascular smooth muscle cells (BrdU index) [2, 4]","potentiation of neointima formation in the blood vessels [2, 4]",Systolic blood pressures [3],hypotensive effects [3],"facilitation of DNA synthesis following stimulation by angiotensin II ([1]; concentration dependence, [3H]thymidine incorporation)","increase in DNA synthesis of vascular smooth muscle cells (BrdU index) ([2]; dose range: azelnidipine 0.1 to 1.0 mg/kg/day oral, olmesartan 0.5 to 3.0 mg/kg/day intraperitoneal osmotic minipump, 7 days after cuff placement)","potentiation of neointima formation in the blood vessels ([2]; dose range: azelnidipine 0.1 to 1.0 mg/kg/day oral, olmesartan 0.5 to 3.0 mg/kg/day intraperitoneal osmotic minipump, 14 days after cuff placement)"
"CCCc1nc(C(C)(C)O)c(C(=O)OCc2oc(=O)oc2C)n1Cc1ccc(-c2ccccc2-c2nnn[nH]2)cc1 [Olmesartan medoxomil, (5-methyl-2-oxo-1,3-dioxolen-4-yl)methyl 4-(1-hydroxy-1-methylethyl)-2-propyl-1-[[2′-(1H-tetrazol-5-yl)biphenyl-4-yl]methyl]imidazol-5-carboxylate]",insufficient to elicit any effects alone,without any effects on blood pressure,did not elicit any significant effects,did not elicit any significant effects,121 ± 4 mmHg,did not elicit any significant effects,,,
"CC1=C(C(=O)OC(C)C)C(c2cccc([N+](=O)[O-])c2)C(C(=O)OC2CN(C(c3ccccc3)c3ccccc3)C2)=C(N)N1 (racemic) [Azelnidipine, (±)-2-amino-1,4-dihydro-6-methyl-4-(3-nitrophenyl)-3,5-pyridine-dicarboxylate-3-(1-diphenylmethylazetidin-3-yl)ester 5-isopropylester]",insufficient to elicit any effects alone,without any effects on blood pressure,did not elicit any significant effects,did not elicit any significant effects,127 ± 4 mmHg,did not elicit any significant effects,suppressed by administration of azelnidipine in a concentration-dependent manner,inhibited by azelnidipine in a dose-dependent manner,inhibited by azelnidipine in a dose-dependent manner
